Results reported in article PMC7730235, “Discovery of a Novel Class of Covalent Dual Inhibitors Targeting the Protein Kinases BMX and BTK” (International Journal of Molecular Sciences, 2020).

Columns and labels:
[1] = target: T1, Full length BMX (C-terminal NanoLuc fusion) (Homo sapiens, UniProt P51813); assay: Cellular NanoBRET target engagement assay in HEK293T cells; assay type: cell-based; conditions: 0.5 µM Tracer K4, 2 h incubation
T1 construct: Full length BMX and BTK was cloned into pFC32K; expressed in transfected cells; host or cells: HEK293T
T1 sequence (P51813 1-675): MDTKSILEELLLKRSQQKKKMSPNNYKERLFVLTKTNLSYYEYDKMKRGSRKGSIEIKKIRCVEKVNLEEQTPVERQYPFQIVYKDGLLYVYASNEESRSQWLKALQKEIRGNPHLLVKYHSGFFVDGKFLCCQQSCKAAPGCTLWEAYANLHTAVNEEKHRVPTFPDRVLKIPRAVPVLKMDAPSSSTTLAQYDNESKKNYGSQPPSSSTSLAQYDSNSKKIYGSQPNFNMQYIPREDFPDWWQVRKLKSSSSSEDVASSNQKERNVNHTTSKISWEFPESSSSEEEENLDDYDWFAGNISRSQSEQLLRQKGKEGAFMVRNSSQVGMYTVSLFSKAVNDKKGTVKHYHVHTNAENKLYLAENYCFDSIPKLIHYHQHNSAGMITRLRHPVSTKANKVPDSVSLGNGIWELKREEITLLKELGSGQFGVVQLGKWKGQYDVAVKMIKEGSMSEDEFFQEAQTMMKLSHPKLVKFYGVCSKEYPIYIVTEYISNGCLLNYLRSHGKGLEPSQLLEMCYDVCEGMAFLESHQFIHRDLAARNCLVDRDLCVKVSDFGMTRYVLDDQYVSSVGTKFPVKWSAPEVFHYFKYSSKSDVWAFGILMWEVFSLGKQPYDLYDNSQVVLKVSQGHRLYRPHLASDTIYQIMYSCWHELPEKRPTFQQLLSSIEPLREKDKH
Protocol: (§1) Full length BMX and BTK was cloned into pFC32K (Promega, Madison, WI, USA) for expression of a C-terminal NanoLuc fusion. The plasmids were transfected into HEK293T cells cultured in DMEM (Gibco, Waltham, MA, USA) supplemented with 10% fetal bovine serum (Gibco, Waltham, MA, USA) and Penicillin/Streptamycin (Gibco, Waltham, MA, USA). NanoBRET assays were performed using the protocol published previously. Briefly, after transfection and 20 h incubation cells were harvested and subsequently resuspended in OptiMEM (Gibco, Waltham, MA, USA). Cells were aliquoted onto […] (Greiner, Kremsmünster, Austria), and inhibitors as well as 0.5 µM Tracer K4 (Promega) for BMX or 0.5 µM Tracer K5 (Promega, Madison, WI, USA) for BTK were added using an ECHO acoustic dispenser. The plates were incubated at 37 °C with 5% CO2 for 2 h prior to the addition of both NanoBRET NanoGlo substrate (Promega, Madison, WI, USA) and extracellular NanoLuc inhibitor. BRET luminescence (450 nm for donor emission and 610 nm for BRET signal) was measured using PHERAstar FSX plate reader (BMG Labtech, Ortenberg, Germany). Milli-BRET units (mBU) were calculated as a ratio between BRET signal and the overall measured luminescence. A dose–response fitting was applied and IC50 values were calculated using the Prism software. […] Experiments were performed as tripicates and repeated at least three times.

[2] = target: T2, Full length BTK (C-terminal NanoLuc fusion) (Homo sapiens, UniProt Q06187); assay: as above; assay type: cell-based; conditions: 0.5 µM Tracer K5, 2 h incubation
T2 construct: Full length BMX and BTK was cloned into pFC32K; expressed in transfected cells; host or cells: HEK293T
T2 sequence (Q06187 whole entry, the tested form may be a part): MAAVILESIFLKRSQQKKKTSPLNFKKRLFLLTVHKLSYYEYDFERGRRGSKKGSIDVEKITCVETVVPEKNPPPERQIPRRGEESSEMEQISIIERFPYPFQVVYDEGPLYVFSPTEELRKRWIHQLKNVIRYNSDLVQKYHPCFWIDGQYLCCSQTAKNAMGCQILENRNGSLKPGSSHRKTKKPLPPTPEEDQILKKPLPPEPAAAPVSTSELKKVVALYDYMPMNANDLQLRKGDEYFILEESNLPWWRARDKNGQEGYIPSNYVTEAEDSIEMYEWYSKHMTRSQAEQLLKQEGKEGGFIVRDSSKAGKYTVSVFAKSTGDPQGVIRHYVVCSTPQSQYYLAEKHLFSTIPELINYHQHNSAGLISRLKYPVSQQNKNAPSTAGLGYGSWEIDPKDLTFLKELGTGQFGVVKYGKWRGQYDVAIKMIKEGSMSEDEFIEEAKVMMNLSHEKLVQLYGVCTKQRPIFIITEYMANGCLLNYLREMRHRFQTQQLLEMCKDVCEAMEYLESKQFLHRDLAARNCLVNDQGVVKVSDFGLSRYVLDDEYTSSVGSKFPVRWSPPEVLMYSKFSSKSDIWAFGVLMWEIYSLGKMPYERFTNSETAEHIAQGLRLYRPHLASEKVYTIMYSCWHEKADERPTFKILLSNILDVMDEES
Protocol: as §1

BMX = target: T3, BMX (Homo sapiens, UniProt P51813); assay: Radiometric kinase assay (Reaction Biology HotSpot); assay type: biochemical; conditions: [ATP] = 10 μM; for IC50: radiometric HotSpot, five-dose singlicate; for remaining activity at 0.2 µM: 200 nM compound, duplicate mean, read-out: Residual Activity @ 200 nM, BMX
T3 construct: purchased Reaction Biology Corporation
T3 sequence (P51813 1-675): T1 sequence (P51813 1-675)
Protocol: (§2) If not mentioned differently, in vitro profiling of compounds was performed at Reaction Biology Corporation using the HotSpot™ assay platform.

TEC = target: T4, TEC (Homo sapiens, UniProt P42680); assay: as above; assay type: biochemical; conditions: [ATP] = 10 μM; for remaining activity at 0.2 µM: 200 nM compound, duplicate mean, read-out: Residual Activity @ 200 nM, TEC
T4 construct: purchased Reaction Biology Corporation
T4 sequence (P42680 1-631): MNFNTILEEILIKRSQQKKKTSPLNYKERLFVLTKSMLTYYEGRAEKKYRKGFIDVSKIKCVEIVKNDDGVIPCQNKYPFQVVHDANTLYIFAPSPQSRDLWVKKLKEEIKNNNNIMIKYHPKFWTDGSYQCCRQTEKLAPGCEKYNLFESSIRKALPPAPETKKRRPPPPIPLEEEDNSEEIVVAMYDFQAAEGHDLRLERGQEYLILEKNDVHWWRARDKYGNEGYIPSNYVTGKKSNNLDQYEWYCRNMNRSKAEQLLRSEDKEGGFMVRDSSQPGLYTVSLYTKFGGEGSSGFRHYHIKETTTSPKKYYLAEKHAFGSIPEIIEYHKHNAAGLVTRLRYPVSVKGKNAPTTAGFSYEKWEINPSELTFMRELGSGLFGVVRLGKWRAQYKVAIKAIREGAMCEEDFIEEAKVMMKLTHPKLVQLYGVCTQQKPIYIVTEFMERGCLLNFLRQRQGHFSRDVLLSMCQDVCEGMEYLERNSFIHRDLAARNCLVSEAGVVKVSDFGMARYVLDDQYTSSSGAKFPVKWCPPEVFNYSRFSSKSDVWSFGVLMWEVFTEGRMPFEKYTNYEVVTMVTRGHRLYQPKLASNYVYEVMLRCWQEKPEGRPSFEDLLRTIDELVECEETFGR
Protocol: as §2

BTK = target: T5, BTK (Homo sapiens, UniProt Q06187); assay: as above; assay type: biochemical; conditions: [ATP] = 10 μM; for remaining activity at 0.2 µM: read-out: Residual Activity @ 200 nM, BTK
T5 construct: purchased Reaction Biology Corporation
T5 sequence (Q06187 whole entry): as the sequence (Q06187 whole entry, the tested form may be a part) above
Protocol: as §2

MKK7 = target: T6, MKK7 (Homo sapiens, UniProt O14733); assay: as above; assay type: biochemical; conditions: 200 nM compound, duplicate mean, [ATP] = 10 μM; read-out: Residual Activity @ 200 nM, MKK7
T6 construct: purchased Reaction Biology Corporation
T6 sequence (O14733 1-419): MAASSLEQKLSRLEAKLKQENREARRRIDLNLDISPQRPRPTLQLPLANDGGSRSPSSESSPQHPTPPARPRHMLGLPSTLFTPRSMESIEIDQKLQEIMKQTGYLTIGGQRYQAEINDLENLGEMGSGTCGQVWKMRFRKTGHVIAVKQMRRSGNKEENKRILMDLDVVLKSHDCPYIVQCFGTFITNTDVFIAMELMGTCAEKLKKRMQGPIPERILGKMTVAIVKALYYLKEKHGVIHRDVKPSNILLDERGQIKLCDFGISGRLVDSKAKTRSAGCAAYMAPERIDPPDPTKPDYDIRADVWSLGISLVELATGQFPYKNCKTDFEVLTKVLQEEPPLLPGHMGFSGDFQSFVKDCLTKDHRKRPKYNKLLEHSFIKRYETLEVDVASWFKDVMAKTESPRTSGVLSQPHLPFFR
Protocol: as §2

[3] = 200 nM compound, duplicate mean
[4] = radiometric HotSpot, five-dose singlicate

In the case of `CCC(=O)Nc1cccc(-c2c[nH]c3ncc(NC(=O)C4CCCC4)cc23)c1` [Compound 12b, N-(3-(3-propionamidophenyl)-1H-pyrrolo[2,3-b]pyridin-5-yl)cyclopentanecarboxamide], the IC50 [1] is reported as > 10000 nM, the IC50 [2] is reported as 8210 ± 3460 nM and the IC50 (BMX) is reported as 582 nM. The remaining activity at 0.2 µM (TEC) was 99.2%, the “Residual Activity @ 200 nM, BTK” value (BTK; [3]) was 69.7% and the remaining activity at 0.2 µM (BTK; [3]) was 70%.

For `C=CC(=O)Nc1cccc(-c2c[nH]c3ncc(C(=O)NC4CCCC4)cc23)c1` [Compound 11a, 3-(3-acrylamidophenyl)-N-cyclopentyl-1H-pyrrolo[2,3-b]pyridine-5-carboxamide], the IC50 [1] was 6070 ± 1830 nM, the IC50 [2] was 2070 ± 32 nM and the IC50 (BMX) was 539 nM.

With `C=CC(=O)Nc1cccc(-c2c[nH]c3ncccc23)c1` [Compound 9a, N-(3-(1H-pyrrolo[2,3-b]pyridin-3-yl)phenyl)acrylamide] the IC50 [1] was 26 ± 11 nM, the IC50 [2] was 15 ± 2 nM and the remaining activity at 0.2 µM (BMX) was 2.7%. For the same compound, the remaining activity at 0.2 µM (MKK7) was 37.3%, the remaining activity at 0.2 µM (TEC) was 37.1% and the remaining activity at 0.2 µM (BTK; [3]) was 18.2%.

For `C=CC(=O)Nc1cccc(-c2c[nH]c3ncc(NC(=O)c4cccs4)cc23)c1` [Compound 12c, N-(3-(3-acrylamidophenyl)-1H-pyrrolo[2,3-b]pyridin-5-yl)thiophene-2-carboxamide], the IC50 [1] was 3 ± 1 nM, the IC50 [2] was 9 ± 1 nM and the remaining activity at 0.2 µM (MKK7) was > 100%. It also gave a remaining activity at 0.2 µM (TEC) of 17.2%, an IC50 (TEC; [4]) of 13 nM and a remaining activity at 0.2 µM (BTK; [3]) of 0.8%. The IC50 (BTK; [4]) was < 1 nM.

`C=CC(=O)Nc1cccc(-c2c[nH]c3ncc(C(N)=O)cc23)c1` [Compound 10a, 3-(3-acrylamidophenyl)-1H-pyrrolo[2,3-b]pyridine-5-carboxamide] gave an IC50 [1] of 765 ± 283 nM, an IC50 [2] of 283 ± 24 nM and a remaining activity at 0.2 µM (BMX) of 1.6%. The IC50 (BMX) was 29 nM, the remaining activity at 0.2 µM (MKK7) was 28.3% and the remaining activity at 0.2 µM (TEC) was 42.1%. It also gave a remaining activity at 0.2 µM (BTK; [3]) of 18.9%.
